Tests used:
[1] = target: T1, Rat FAAH (Rattus norvegicus, UniProt P97612); experiment: Assay Method 2: FAAH assay, 3H-anandamide hydrolysis in cell homogenate; format: biochemical; conditions: transfected SK-N-MC cell homogenate, 80 nM 3H-AEA, 1 h rt, > = solubility limit or highest concentration tested
T1 construct: expressed in transfected cells
T1 sequence (P97612 1-579): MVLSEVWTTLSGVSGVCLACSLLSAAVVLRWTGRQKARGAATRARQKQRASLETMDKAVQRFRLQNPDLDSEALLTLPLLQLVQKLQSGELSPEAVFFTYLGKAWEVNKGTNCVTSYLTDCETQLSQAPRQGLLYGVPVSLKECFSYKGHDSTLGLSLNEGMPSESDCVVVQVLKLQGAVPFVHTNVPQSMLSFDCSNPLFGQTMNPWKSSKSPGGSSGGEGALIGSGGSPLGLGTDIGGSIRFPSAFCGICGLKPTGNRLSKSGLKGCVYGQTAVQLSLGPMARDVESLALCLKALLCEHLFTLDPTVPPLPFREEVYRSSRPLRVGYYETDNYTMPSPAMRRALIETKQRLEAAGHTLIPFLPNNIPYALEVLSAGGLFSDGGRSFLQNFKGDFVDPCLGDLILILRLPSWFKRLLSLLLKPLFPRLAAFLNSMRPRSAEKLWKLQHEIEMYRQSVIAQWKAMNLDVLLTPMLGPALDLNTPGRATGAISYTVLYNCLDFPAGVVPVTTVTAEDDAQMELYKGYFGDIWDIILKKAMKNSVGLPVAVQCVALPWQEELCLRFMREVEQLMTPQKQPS
How it was run: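 Homogenate of SK-N-MC cells stably transfected with rat FAAH cDNA (G418-selected clones) incubated with compound and 80 nM final [3H]-anandamide for 1 h. Released [3H]-ethanolamine separated on activated charcoal filters by centrifugation and counted by scintillation. ">" values mark solubility limit or top concentration tested.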

[2] = target: T2, FAAH (Homo sapiens, UniProt O00519); experiment: Assay Method 1: FAAH assay, 3H-anandamide hydrolysis in cell homogenate; format: biochemical; parameters: expressed in transfected cells; conditions: T84 or transfected SK-N-MC cell homogenate, 80 nM 3H-AEA, 1 h rt, > = solubility limit or highest concentration tested
T2 sequence (O00519 1-579): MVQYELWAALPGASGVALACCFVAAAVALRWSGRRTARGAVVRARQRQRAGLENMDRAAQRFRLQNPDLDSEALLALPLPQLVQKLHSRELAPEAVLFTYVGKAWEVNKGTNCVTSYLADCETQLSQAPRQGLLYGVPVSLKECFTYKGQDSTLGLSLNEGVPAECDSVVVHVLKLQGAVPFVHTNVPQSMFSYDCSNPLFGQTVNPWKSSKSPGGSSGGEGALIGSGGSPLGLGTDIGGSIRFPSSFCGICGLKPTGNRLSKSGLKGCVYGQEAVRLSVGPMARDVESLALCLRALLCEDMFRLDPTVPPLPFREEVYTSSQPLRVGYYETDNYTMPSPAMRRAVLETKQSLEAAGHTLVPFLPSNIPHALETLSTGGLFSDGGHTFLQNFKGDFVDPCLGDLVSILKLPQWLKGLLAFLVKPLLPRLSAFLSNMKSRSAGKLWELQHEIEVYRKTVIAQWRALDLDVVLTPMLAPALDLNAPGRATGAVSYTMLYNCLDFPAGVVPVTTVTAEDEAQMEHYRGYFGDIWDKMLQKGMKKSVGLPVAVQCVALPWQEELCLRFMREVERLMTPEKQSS
How it was run: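 Homogenate of SK-N-MC cells stably transfected with human FAAH, incubated with compound and 80 nM final ³H-anandamide for 1 h at rt. Released ³H-ethanolamine separated from substrate on activated charcoal and counted by scintillation. ">" values reflect solubility limit or top concentration tested.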

| SMILES | IC50 [1] [nM] | IC50 [2] [nM] |
| --- | --- | --- |
| O=C(c1ncco1)C1CCN(Cc2cc3cc4c(cc3nc2Cl)OCO4)CC1 [Example 67, [1-(6-Chloro-[1,3]dioxolo[4,5-g]quinolin-7-ylmethyl)-piperidin-4-yl]-oxazol-2-yl-methanone] | > 10000 | 745 |
| O=C(c1ncco1)C1CCN(Cc2ccc3ccc(Cl)cc3n2)CC1 [Example 76, [1-(7-Chloro-quinolin-2-ylmethyl)-piperidin-4-yl]-oxazol-2-yl-methanone] | 8 | 3 |
| O=C(c1ncco1)C1CCN(Cc2ccccc2Br)CC1 [Example 53, [1-(2-Bromo-benzyl)-piperidin-4-yl]-oxazol-2-yl-methanone] | 320 | 85 |
| CC(C)Oc1ccc(CN2CCC(C(=O)c3ncco3)CC2)cc1 [Example 23, [1-(4-Isopropoxy-benzyl)-piperidin-4-yl]-oxazol-2-yl-methanone] | > 10000 | 5000 |
| COc1ccccc1C(=O)N1CCC(C(=O)c2ncco2)CC1 [Example 8, [1-(2-Methoxy-benzoyl)-piperidin-4-yl]-oxazol-2-yl-methanone] | > 10000 | > 10000 |
| CN(C)c1nc2ccccc2cc1CN1CCC(C(=O)c2ncco2)CC1 [Example 72, [1-(2-Dimethylamino-quinolin-3-ylmethyl)-piperidin-4-yl]-oxazol-2-yl-methanone] | 38 | 46 |
| O=C(c1ncco1)C1CCN(S(=O)(=O)c2cccc(Cl)c2)CC1 [Example 5, [1-(3-Chloro-benzenesulfonyl)-Diperidin-4-yl]-oxazol-2-yl-methanone] | 8000 | 8000 |
| O=C(c1ncco1)C1CCN(Cc2ccc(Oc3ccccc3)cc2)CC1 [Example 57, Oxazol-2-yl-[1-(4-phenoxy-benzyl)-piperidin-4-yl]-methanone] | 532 | 210 |
| O=C(c1ncco1)C1CCN(Cc2cccc(OC3CCCCC3)c2)CC1 [Example 22, [1-(3-Cyclohexyloxy-benzyl)-piperidin-4-yl]-oxazol-2-yl-methanone] | 790 | 12 |
| O=C(c1ncco1)C1CCN(Cc2ccc3ccccc3c2O)CC1 [Example 47, [1-(1-Hydroxy-naphthalen-2-ylmethyl)-piperidin-4-yl]-oxazol-2-yl-methanone] | 7 | 4 |
| O=C(c1ncco1)C1CCN(C(=O)c2ccc(Cl)cc2)CC1 [Example 11, [1-(4-Chloro-benzoyl)-piperidin-4-yl]-oxazol-2-yl-methanone] | 7500 | 2150 |
| O=C(c1ncco1)C1CCN(Cc2ccc3cc(Cl)ccc3n2)CC1 [Example 77, [1-(6-Chloro-quinolin-2-ylmethyl)-piperidin-4-yl]-oxazol-2-yl-methanone] | 22 | 7 |

More lines, now with the values ahead:

| IC50 [1] [nM] | IC50 [2] [nM] | SMILES |
| --- | --- | --- |
| > 10000 | 519 | O=C(c1ncco1)C1CCN(Cc2ccc3[nH]ccc3c2)CC1 [Example 42] |
| 9 | 3 | O=C(c1ncco1)C1CCN(Cc2ccc(Br)c([N+](=O)[O-])c2)CC1 [Example 26, [1-(4-Bromo-3-nitro-benzyl)-piperidin-4-yl]-oxazol-2-yl-methanone] |
| 43 | 18 | O=C(c1ncco1)C1CCN(Cc2cnc3ccccc3c2)CC1 [Example 85, Oxazol-2-yl-(1-quinolin-3-ylmethyl-piperidin-4-yl)-methanone] |
| 2000 | 80 | Cn1ccc2cc(CN3CCC(C(=O)c4ncco4)CC3)ccc21 [Example 39, [1-(1-Methyl-1H-indol-5-ylmethyl)-piperidin-4-yl]-oxazot-2-yl-methanone] |
| 2 | 2 | O=C(c1ncco1)C1CCN(Cc2ccc(Br)c(Br)c2)CC1 [Example 87, [1-(3,4-Dibromo-benzyl)-piperidin-4-yl]-oxazol-2-yl-methanone] |
| 91 | 37 | Cn1c(CN2CCC(C(=O)c3ncco3)CC2)nc2ccccc21 [Example 49, [1-(1-Methyl-1H-benzoimidazol-2-ylmethyl)-piperidin-4-yl]-oxazol-2-yl-methanone] |

From patent US20100292266A1, “Oxazolyl Piperidine Modulators of Fatty Acid Amide Hydrolase” (priority 2006, published 2010)
